Results as given in patent US20260130900A1, “Controlled Release Pharmaceutical Composition” (Daewoong Pharmaceutical Co., Ltd., priority 2022, published 2026).

Experiment: Single-dose escalating clinical testing, safety/tolerability of the active ingredient
Type: in vivo, human
From the text: In order to confirm the safety/tolerability of the active ingredient in the human body, side effects were checked in healthy adult subjects.
The clinical testing was designed for 32 healthy adult subjects in a randomized, double-blinded, placebo-controlled, single-dose escalating manner, as shown in Table 1 below. The capsule tablets used in this clinical testing were produced by using Vcaps® enteric-coated capsules containing only the active ingredient in hydrochloride form without additional excipients, and filling capsules by volume. The ingredients of the enteric-coated tablet (1 tablet) used in the clinical testing are shown in Table 2 below, and were named ‘Comparative Example 1’. In addition, for the enteric-coated tablet administrated group, 5 tablets were administered at a time.

With `O[C@H]1CCCN[C@@H]1CCCn1cnc2c(Cl)c(Cl)ccc21` [API, (2R,3S)-2-(3-(4,5-dichloro-1H-benzo[d]imidazol-1-yl)propyl) piperidin-3-ol 1HCl] the “time of occurrence of nausea and vomiting side effects versus exposure in the body” value (single administration, FIG. 1) was “the majority of cases occur before the blood concentration in the body increases” and the “most frequently occurring adverse reactions” value (single oral administration 100-600 mg, enteric coated capsule or tablet, healthy adult subjects) was “gastrointestinal adverse reactions including nausea, vomiting, diarrhea, and abdominal pain”.
